Measured values reported in ChEMBL document CHEMBL3596090, “Discovery of novel pyrazole-containing benzamides as potent RORγ inverse agonists” (Bioorg Med Chem Lett, 2015).
Converted amounts (≈) assume the structure as drawn.

Experiments:
[1] = target: T1, Nuclear receptor ROR-gamma (Homo sapiens, UniProt P51449); test: Inverse agonist activity at RORgamma (unknown origin) transfected in HEK293T cells after 16 to 20 hrs by GAL4 luciferase reporter gene assay; assay type: functional, cell-based, HEK-293T
T1 sequence (P51449 whole entry): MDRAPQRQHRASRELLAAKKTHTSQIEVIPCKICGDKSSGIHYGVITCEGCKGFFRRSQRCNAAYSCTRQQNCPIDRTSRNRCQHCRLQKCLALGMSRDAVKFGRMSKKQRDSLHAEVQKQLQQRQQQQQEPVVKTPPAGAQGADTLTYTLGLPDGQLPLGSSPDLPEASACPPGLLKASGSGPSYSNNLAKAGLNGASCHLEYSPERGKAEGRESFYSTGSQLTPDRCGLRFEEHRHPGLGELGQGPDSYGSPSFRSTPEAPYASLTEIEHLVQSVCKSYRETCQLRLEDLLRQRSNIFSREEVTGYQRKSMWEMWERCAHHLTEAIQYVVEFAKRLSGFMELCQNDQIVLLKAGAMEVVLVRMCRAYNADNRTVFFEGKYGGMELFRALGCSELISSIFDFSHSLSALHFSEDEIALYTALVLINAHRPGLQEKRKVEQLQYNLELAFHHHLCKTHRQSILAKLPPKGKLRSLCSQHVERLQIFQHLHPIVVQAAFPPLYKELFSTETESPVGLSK

[2] = target: T2, Nuclear receptor subfamily 1 group I member 2 (Homo sapiens, UniProt O75469); test: Activation of PXR (unknown origin)
T2 sequence (O75469 whole entry): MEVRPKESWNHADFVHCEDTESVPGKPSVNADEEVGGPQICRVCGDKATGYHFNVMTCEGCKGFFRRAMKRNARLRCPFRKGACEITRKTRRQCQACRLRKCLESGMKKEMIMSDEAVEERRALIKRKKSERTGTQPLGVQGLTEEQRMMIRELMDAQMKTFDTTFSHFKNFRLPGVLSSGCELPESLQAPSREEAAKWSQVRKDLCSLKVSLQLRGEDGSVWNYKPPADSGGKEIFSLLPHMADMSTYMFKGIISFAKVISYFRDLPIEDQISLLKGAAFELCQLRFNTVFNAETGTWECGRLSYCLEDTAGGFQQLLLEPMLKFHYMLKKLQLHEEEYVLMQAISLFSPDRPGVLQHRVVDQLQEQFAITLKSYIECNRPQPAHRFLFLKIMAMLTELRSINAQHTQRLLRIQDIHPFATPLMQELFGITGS

[3] = Percentage unbound in rat plasma; assay type: ADME, cell-free
[4] = Percentage unbound in human plasma; assay type: ADME, cell-free
[5] = target: T3, Nuclear receptor ROR-gamma (Mus musculus, UniProt P51450); test: Inverse agonist activity at RORgamma in C57BL/6 mouse splenocytes assessed as reduction of IL-17 production after 2 days by ELISA; assay type: cell-based
T3 sequence (P51450 whole entry): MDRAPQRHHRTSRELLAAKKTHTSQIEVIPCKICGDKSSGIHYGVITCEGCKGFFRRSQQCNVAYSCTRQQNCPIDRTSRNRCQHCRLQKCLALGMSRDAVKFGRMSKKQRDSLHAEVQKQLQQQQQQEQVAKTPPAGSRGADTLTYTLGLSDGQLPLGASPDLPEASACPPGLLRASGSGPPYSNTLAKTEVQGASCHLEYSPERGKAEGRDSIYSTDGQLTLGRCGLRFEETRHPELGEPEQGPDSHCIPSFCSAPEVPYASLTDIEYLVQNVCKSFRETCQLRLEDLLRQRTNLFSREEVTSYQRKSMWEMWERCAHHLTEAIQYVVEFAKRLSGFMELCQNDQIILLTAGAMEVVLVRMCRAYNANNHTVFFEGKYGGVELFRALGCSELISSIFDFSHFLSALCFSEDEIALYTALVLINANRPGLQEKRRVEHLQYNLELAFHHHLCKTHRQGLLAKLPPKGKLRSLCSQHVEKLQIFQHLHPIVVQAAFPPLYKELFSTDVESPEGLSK

[6] = target: T4, Nuclear receptor ROR-alpha (Homo sapiens, UniProt P35398); test: Inverse agonist activity at RORalpha (unknown origin)
T4 sequence (P35398 whole entry): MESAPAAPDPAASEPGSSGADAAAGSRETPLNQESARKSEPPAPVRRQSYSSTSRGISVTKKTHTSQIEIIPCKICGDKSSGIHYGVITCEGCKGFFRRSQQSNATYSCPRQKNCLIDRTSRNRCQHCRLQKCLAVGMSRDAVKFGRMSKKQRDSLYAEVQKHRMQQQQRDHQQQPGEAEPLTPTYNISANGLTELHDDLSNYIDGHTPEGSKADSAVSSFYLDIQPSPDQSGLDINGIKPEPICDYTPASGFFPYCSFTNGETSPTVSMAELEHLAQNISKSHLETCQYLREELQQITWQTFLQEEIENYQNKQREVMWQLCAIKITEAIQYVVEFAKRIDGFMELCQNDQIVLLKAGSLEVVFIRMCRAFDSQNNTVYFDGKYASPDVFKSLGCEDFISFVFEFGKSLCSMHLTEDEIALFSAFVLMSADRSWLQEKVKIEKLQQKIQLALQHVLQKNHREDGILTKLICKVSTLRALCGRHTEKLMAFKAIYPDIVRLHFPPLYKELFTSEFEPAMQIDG

[7] = target: T5, Nuclear receptor ROR-beta (Homo sapiens, UniProt Q92753); test: Inverse agonist activity at RORbeta (unknown origin)
T5 sequence (Q92753 whole entry): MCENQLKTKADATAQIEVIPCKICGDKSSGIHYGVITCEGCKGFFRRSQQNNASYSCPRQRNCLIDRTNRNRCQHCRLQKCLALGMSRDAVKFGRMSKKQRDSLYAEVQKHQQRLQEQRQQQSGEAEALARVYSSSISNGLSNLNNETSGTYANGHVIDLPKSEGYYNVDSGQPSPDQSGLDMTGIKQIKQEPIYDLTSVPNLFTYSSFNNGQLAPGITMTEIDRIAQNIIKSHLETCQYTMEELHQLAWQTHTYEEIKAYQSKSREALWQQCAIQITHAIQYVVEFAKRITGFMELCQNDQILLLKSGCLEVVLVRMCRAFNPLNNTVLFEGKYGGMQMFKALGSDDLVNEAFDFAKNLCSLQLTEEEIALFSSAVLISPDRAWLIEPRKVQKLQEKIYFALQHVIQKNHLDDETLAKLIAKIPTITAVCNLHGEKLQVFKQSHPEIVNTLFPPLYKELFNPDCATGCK

[8] = Kinetic aqueous solubility of the compound; assay type: physicochemical; conditions: buffer; read-out: Kinetic_solubility

Row | Compound | EC50 [1] [µM] | EC50 [2] [µM] | fraction unbound [3] | fraction unbound [4] | EC50 [5] [µM] | EC50 [6] [µM] | EC50 [7] [µM] | solubility kinetic [8] [µg/mL]
1 | [2H]C([2H])([2H])N(C(=O)c1c(F)cccc1Cl)c1ccc(-c2cc(NC(=O)OC3(C)CC3)nn2C(C)C)cc1N1CC2CC2C1 (stereo not drawn) | 0.15 | – | – | – | – | – | – | –
2 | [2H]C([2H])([2H])N(C(=O)c1c(C)cccc1F)c1ccc(-c2cc(NC(C)=O)nn2C(C)C)cc1N1CC2CC2C1 (stereo not drawn) | – | > 10 | 0.002 | 0.011 | 0.355 | 2 | 1.5 | 17 (≈ 34.5 µM)
3 | [2H]C([2H])([2H])N(C(=O)c1c(F)cccc1Cl)c1ccc(-c2cc(NC(=O)C(C)C)nn2C(C)C)cc1N1CC2CC2C1 (stereo not drawn) | 0.015 | – | – | – | 0.128 | – | – | –
4 | [2H]C([2H])([2H])N(C(=O)c1c(Cl)cccc1Cl)c1ccc(-c2cc(NC(C)=O)nn2C(C)C)cc1N1CC2CC2C1 (stereo not drawn) | – | 0.5 | 0.001 | 0.004 | 0.073 | 1.5 | 0.6 | 0.8 (≈ 1.51 µM)
5 | [2H]C([2H])([2H])N(C(=O)c1c(F)cccc1Cl)c1ncc(-c2cc(NC(C)=O)nn2C(C)C)cc1N1CC2CC2C1 (stereo not drawn) | – | 1.3 | 0.022 | 0.056 | – | > 10 | 6.2 | 48 (≈ 93.4 µM)
6 | [2H]C([2H])([2H])N(C(=O)c1c(F)cccc1Cl)c1ccc(-c2cc(NC(=O)[C@H]3C[C@@H](O)C3)nn2C(C)C)cc1N1CC2CC2C1 (stereo partly drawn) | – | – | – | – | 0.134 | – | – | –
7 | [2H]C([2H])([2H])N(C(=O)c1c(F)cccc1Cl)c1ccc(-c2cc(NC(=O)[C@H]3C[C@H](O)C3)nn2C(C)C)cc1N1CC2CC2C1 (stereo partly drawn) | – | – | – | – | 0.134 | – | – | –
8 | CC(=O)Nc1nc(C(C)C)c(-c2cnc(N(C)C(=O)c3c(F)cccc3Cl)c(N3CCCCC3)c2)s1 | – | 0.4 | 0.002 | 0.003 | – | 2.2 | 0.8 | 0.3 (≈ 0.566 µM)
9 | [2H]C([2H])([2H])N(C(=O)c1c(F)cccc1Cl)c1ccc(-c2cc(NC(=O)N3CC4(COC4)C3)nn2C(C)C)cc1N1CC2CC2C1 (stereo not drawn) | – | – | – | – | 0.148 | – | – | –
10 | [2H]C([2H])([2H])N(C(=O)c1c(F)cccc1Cl)c1ccc(-c2cc(NC(=O)NC(CO)CO)nn2C(C)C)cc1N1CC2CC2C1 (stereo not drawn) | 0.071 | – | – | – | – | – | – | –
11 | [2H]C([2H])([2H])N(C(=O)c1c(F)cccc1Cl)c1ccc(-c2cc(NC(C)=O)nn2CC(C)(C)C)cc1N1CC2CC2C1 (stereo not drawn) | – | – | – | – | – | – | – | 0.8 (≈ 1.48 µM)
12 | [2H]C([2H])([2H])N(C(=O)c1c(F)cccc1Cl)c1ccc(-c2cc(NC(C)=O)nn2C2CCC2)cc1N1CC2CC2C1 (stereo not drawn) | – | – | 0.0004 | 0.003 | 0.199 | – | – | 0.5 (≈ 0.952 µM)
13 | [2H]C([2H])([2H])N(C(=O)c1c(F)cccc1Cl)c1ccc(-c2cnn(C)c2C(C)C)cc1OCC(F)(F)F | – | – | 0.006 | 0.009 | 0.818 | – | – | < 0.1
14 | [2H]C([2H])([2H])N(C(=O)c1c(F)cccc1Cl)c1ccc(-c2cc(NC(=O)C3CC3)nn2C(C)C)cc1N1CC2CC2C1 (stereo not drawn) | – | – | – | – | 0.088 | – | – | –
15 | [2H]C([2H])([2H])N(C(=O)c1c(F)cccc1Cl)c1ccc(-c2cc(C(N)=O)nn2C(C)C)cc1OCC(F)(F)F | – | – | 0.031 | 0.059 | 2 | – | – | 32 (≈ 62 µM)
16 | [2H]C([2H])([2H])N(C(=O)c1c(F)cccc1Cl)c1ccc(-c2cc(NC(C)=O)nn2CC2CC2)cc1N1CC2CC2C1 (stereo not drawn) | – | 8.8 | 0.002 | 0.005 | 0.201 | 1.8 | 1.8 | 10.1 (≈ 19.2 µM)
17 | CC(=O)Nc1cc(-c2ccc(N(C)C(=O)c3c(F)cccc3Cl)c(N3CC4CC4C3)c2)n(C(C)C)n1 (stereo not drawn) | – | – | 0.002 | 0.009 | 0.11 | 1.9 | 1.7 | –
18 | [2H]C([2H])([2H])N(C(=O)c1c(F)cccc1Cl)c1ccc(-c2cc(NC(C)=O)nn2C(C)C2CC2)cc1N1CC2CC2C1 (stereo not drawn) | – | 0.9 | – | – | – | 9.3 | 1.3 | 0.5 (≈ 0.928 µM)
19 | [2H]C([2H])([2H])N(C(=O)c1c(F)cccc1Cl)c1ccc(-c2cc(NC(C)=O)nn2C2CCCC2)cc1N1CC2CC2C1 (stereo not drawn) | – | 0.5 | < 0.0005 | 0.002 | 0.06 | 1.3 | 1.3 | 0.1 (≈ 0.186 µM)

Results, then the molecule that gave them:

Row | EC50 [1] [µM] | EC50 [2] [µM] | fraction unbound [3] | fraction unbound [4] | EC50 [5] [µM] | EC50 [6] [µM] | EC50 [7] [µM] | solubility kinetic [8] [µg/mL] | Compound
20 | – | > 10 | 0.001 | 0.004 | 0.011 | 1.1 | 0.8 | 1.3 (≈ 2.52 µM) | [2H]C([2H])([2H])N(C(=O)c1c(F)cccc1Cl)c1ccc(-c2cc(NC(C)=O)nn2C(C)C)cc1N1CCCCC1
21 | – | – | 0.002 | 0.003 | – | – | – | – | [2H]C([2H])([2H])N(C(=O)c1c(F)cccc1Cl)c1ccc(-c2cc(NC(C)=O)nn2C(C)C)cc1OCC(C)C
22 | – | – | – | – | 0.354 | – | – | – | [2H]C([2H])([2H])N(C(=O)c1c(F)cccc1Cl)c1ccc(-c2cc(NC(=O)NC)nn2C(C)C)cc1N1CC2CC2C1 (stereo not drawn)
23 | – | > 10 | – | – | 3.11 | 1.2 | 0.9 | – | [2H]C([2H])([2H])N(C(=O)c1c(F)cccc1Cl)c1ccc(-c2cc(NC(C)=O)nn2C(C)C)cc1OCC1CCC1
24 | – | > 10 | 0.004 | 0.004 | – | 2.1 | 1.1 | – | [2H]C([2H])([2H])N(C(=O)c1c(F)cccc1Cl)c1ccc(-c2cc(NC(C)=O)nn2C(C)C)cc1-c1ccccc1
25 | – | – | – | – | – | – | – | 27 (≈ 50.9 µM) | [2H]C([2H])([2H])N(C(=O)c1c(F)cccc1Cl)c1ccc(-c2cc(NC(C)=O)nn2C(C)C)cc1OCC(F)(F)F
26 | – | 0.8 | 0.009 | 0.017 | – | 1.4 | 1 | 12 (≈ 24 µM) | [2H]C([2H])([2H])N(C(=O)c1c(F)cccc1Cl)c1ccc(-c2cc(NC(C)=O)nn2C(C)C)cc1N1CCCC1
27 | – | – | – | – | 0.033 | – | – | – | [2H]C([2H])([2H])N(C(=O)c1c(F)cccc1Cl)c1ccc(-c2cc(NC(=O)CC)nn2C(C)C)cc1N1CC2CC2C1 (stereo not drawn)
28 | – | – | – | – | 0.12 | – | – | – | [2H]C([2H])([2H])N(C(=O)c1c(F)cccc1Cl)c1ccc(-c2cc(NC(=O)CO)nn2C(C)C)cc1N1CC2CC2C1 (stereo not drawn)
